The text below walks through data of paper PMC3856494, “Radiofluorination and biological evaluation of N-aryl-oxadiazolyl-propionamides as potential radioligands for PET imaging of cannabinoid CB2 receptors” (Organic and Medicinal Chemistry Letters, 2013).

Where two headings read alike, the source gives them in different places.

As a reminder, the melting point is the temperature of the solid-liquid transition.

Data set [1] can be described thus: In vivo metabolism of [18F]17 and uptake of [18F]10. Details: species or system CD1 mice. To be noted: for tissue uptake at 0.5 h / tissue uptake at 1 h: mouse, iv, after i.v. 100 to 200 kBq [18F]17, female CD1 mice. How it is done:
The total amount of activity measured in, e.g. the plasma at particular times p.i. also depends on the kinetics of the excretion of radiotracer/radiometabolites. For [^18F]2, this is more pronounced than for [^18F]1 with unmetabolized [^18F]2 accounting for only 2% of the total radioactivity in the plasma at 30 min p.i. At this time, more than 90% of the recovered activity in plasma samples for [^18F]2 consisted of the single radiometabolite M1b. As this value decreases only slightly up to 60 min p.i. (88%), M1b can be assumed as a rather metabolically stable compound. This radiometabolite of [^18F]2 probably corresponds to the N-aryl-oxadiazolyl-propanoic acid resulting from enzymatic hydrolysis of the amide bond of 2[40]. […] In order introduce ^18F into the molecule, the carbon acid moiety was protected as a methyl ester resulting in the labelled compound [^18F]17 (Scheme 5). It was expected that after injection of this compound in mice, the ester will be converted into the free acid [^18F]10. […] After intravenous injection of [^18F]17 in CD1 mice, samples of the plasma, brain, and spleen were analyzed at 30 and 60 min p.i. (Table 5).
(§1) [^18F]1 and [^18F]2 (100 to 150 MBq, 250 to 450 GBq/μmol in 150 μL NaCl 0.9%/10% EtOH) were injected via the tail vein in CD1 male mice (10 to 12 weeks old, 20 to 25 g). Blood and urine samples were obtained at 30 and 60 min p.i. (n = 3 per time point). Twofold extractions of plasma and brain samples (n = 3) were performed using ice-cold MeCN according to the standard protocol established in our group (see [47, 48]). Briefly, plasma samples were obtained by centrifugation of the blood at 4,000×g at 4°C for 10 min, and brain samples were homogenized in ice-cold 50 mM Tris–HCl (pH = 7.4). The samples were vortexed, incubated on ice, and centrifuged at 10,000×g for 3 min. Supernatants were collected, and the precipitates were re-dissolved in ice-cold MeCN for the second extraction. The supernatants from the two extractions were combined, concentrated under a gentle argon stream at 65°C, and analyzed by radio-TLC and gradient analytical HPLC (see ‘Radiochemistry’ section). Aliquots from each extraction supernatant and the precipitates were also taken and quantified by γ counting (Wallac Wizard 1470, Perkin Elmer Inc., Waltham, MA, USA) along with the respective aliquots of intact plasma samples and brain homogenates. A moderate recovery of radioactivity was obtained from plasma samples and brain homogenates (60% to 70%). Radiometabolites of [^18F]17 in the plasma, spleen, and brain were assessed at 30 and 60 min p.i.

Data set [2] is described as follows: Ex vivo metabolite studies (radio-HPLC of plasma and brain extracts). It counts as in vivo, CD1 mice. To be noted: mice. How it is done:
as §1

In the case of `Cc1ccc(S(=O)(=O)OCCn2c3ccccc3c3cc(NC(=O)CCc4nc(-c5ccc(F)cc5Br)no4)ccc32)cc1` [Compound 15, [2-(3-{3-[3-(2-Bromo-4-fluorophenyl)-1,2,4-oxadiazol-5-yl]propanamido}-9H-carbazol-9-yl)ethyl] 4-methylbenzenesulfonate], the melting point was 136 °C.

On to `COC(=O)CCc1nc(-c2ccc([N+](C)(C)C)cc2Br)no1.[I-]` [Compound 18, 3-Bromo-4-(5-(3-methoxy-3-oxopropyl)-1,2,4-oxadiazol-3-yl)-N,N,N-trimethylbenzenaminium iodide], for which the melting point was 119 °C.

For the molecule `COC(=O)CCc1nc(-c2ccc([18F])cc2Br)no1` [[^18F]17], the “Conversion to free acid [18F]10 in plasma samples” value in data set [1] (plasma, 30 min p.i., i.v., CD1 mice) is given as “completely converted”.

In the case of `O=C(O)CCc1nc(-c2ccc([18F])cc2Br)no1` [[^18F]10], the “Percentage of total activity in brain samples, 30 min p.i.” value in data set [2] (brain homogenate extract, 30 min p.i. of [18F]1 or [18F]2, radio-HPLC) is on record as 8%. Also, in data set [2] (brain homogenate extract, 60 min p.i. of [18F]1 or [18F]2, radio-HPLC), the “Percentage of total activity in brain samples, 60 min p.i.” value is on record as 51%. Moreover, the “Relative percentage of intact tracer and radiometabolites, Plasma 60 min p.i.” value in data set [2] (plasma, 60 min p.i. of [18F]1 or [18F]2, radio-HPLC) is recorded as 88%. Besides, the tissue uptake at 0.5 h in data set [1] (brain, read-out: uptake, Brain, 30 min p.i.) was 0.28 %ID/g; in data set [1] (plasma, read-out: uptake, Plasma, 30 min p.i.), 18.2 %ID/g; in data set [1] (spleen, read-out: uptake, Spleen, 30 min p.i.), 1.35 %ID/g. In addition, the tissue uptake at 1 h worked out at 0.29 %ID/g in data set [1] (brain, read-out: uptake, Brain, 60 min p.i.); 15.4 %ID/g in data set [1] (plasma, read-out: uptake, Plasma, 60 min p.i.); 1.31 %ID/g in data set [1] (spleen, read-out: uptake, Spleen, 60 min p.i.). Moreover, the “Further metabolic transformation in brain and spleen samples” value in data set [1] (up to 60 min p.i. of [18F]17, CD1 mice) is “no further metabolic transformation”.

Molecule `CCn1c2ccccc2c2cc(NC(=O)CCc3nc(-c4ccc([N+](C)(C)C)cc4Br)no3)ccc21.[I-]` [Compound 13, 3-Bromo-4-(5-(3-((9-ethyl-9H-carbazol-3-yl)amino)-3-oxopropyl)-1,2,4-oxadiazol-3-yl)-N,N,N-trimethylbenzenaminium iodide] came in with a melting point of 109 °C.

`COC(=O)CCc1nc(-c2ccc(F)cc2Br)no1` [Compound 17, Methyl-3-(3-(2-bromo-4-fluorophenyl)-1,2,4-oxadiazol-5-yl)propanoate] had a melting point of 39 °C.
